# Data: patent publication US20250052985A1, “SYSTEM AND METHOD FOR QUANTITATIVE PHASE IMAGING FOR MULTI-PARAMETRIC SCREENING OF TUMOR THERAPY RESPONSE” (UNIVERSITY OF UTAH RESEARCH FOUNDATION, priority 2023, published 2025)
# pEC50: −log10 of the molar value. Where “and” joins values, the source holds several entries; their conditions need not be identical. Equal values may be shown once. Read-outs that look alike come from different tables or passages of the source.
# Key:
# [1] = system: MCF-7 cells; test: CellTiter-Glo (CTG) ATP viability assay, MCF-7; type: cell-based; conditions: for Min Asymptote: MCF-7, Hill fit of luminescence normalized to solvent control, one line per replicate
# Procedure: (§1) CTG (e.g., read by the CTG reader 115) is a cell viability assay that quantifies the amount of ATP present at the end of an experiment as an indicator of the number of live cells. The electronic controller 155 measures ATP content in each condition as a readout by a luminescent signal, which is normalized by the luminescence of the control (e.g., a control well) to determine cell viability relative to on-plate controls. In some embodiments, the CTG assay is performed by first removing 100 μL of media from each well on the well-plate 105, which is then replaced with an equal amount of CellTiter-Glo reagent (e.g., Promega, G7572). Assayed plates may be shaken at 500 RPM for 20 minutes and allowed to rest for 10 minutes. In some instances, 100 μL of volume from each well is transferred to a white 96-well plate (e.g., Perkin Elmer, 6005680). The electronic controller 155 collects luminescence data from each well using an Envision plate reader (e.g., Perkin Elmer) and normalized against the solvent control to measure ATP content. The electronic controller 155 fits a 4-parameter hill curve to the dose response to determine the EC50 and depth of response.
# [2] = system: MCF-7 cells; test: cells; conditions: for Max Asymptote / Min Asymptote: MCF-7, 4-parameter Hill fit of mean SGR vs concentration, one line per replicate; for Hill Slope: MCF-7, Hill fit
# Text: (§2) In some embodiments, breast cancer cell lines are imaged, representing diverse clinical subtypes, summarized in Table 2 below, using a QPI microscope (FIG. 1A) based on differential phase contrast (DPC) microscopy and phase reconstruction via a QPI microscope system. DPC is used for image acquisition and phase reconstruction because DPC's flexible design may be customized for high throughput phase measurements. […] As illustrated in the embodiment of FIG. 1A, a QPI microscope system 100 conducts assays in a 96-well plate (e.g., a well-plate 105) with 6-point dose response curves and up to five therapies in triplicate including solvent controls, summarized in Table 4 below. As described below, in reference to FIG. 1A, a growth response of cells is measured noninvasively using QPI via a QPI microscope system 110 before being assayed using a CTG reader 115.
# (§3) FIG. 1B illustrates a timeline plot 200 showing two plates (e.g., two, separate well-plates 105) set up in parallel to measure cell viability. With reference to FIG. 1B, two plates are set-up simultaneously for each experiment. A first plate 205 is incubated for 27 hours (h) post drug exposure prior to CTG analysis (3 h equilibration+24 h of imaging), which measures cell adenosine triphosphate (ATP) content as a surrogate for cell viability. A second plate 210 is imaged for 72 h after 3 h equilibration (e.g., 75 h) and followed by CTG. […] The imaging locations are imaged for 72 h, as shown by images 1700-1715 of FIG. 7.
# (§4) In some embodiments, a dose-dependent change in growth, as indicated by a change in the rate of mass accumulation or loss, is a parameter that can be extracted from QPI dose-response data. […] Individual specific growth rate measurements are indicated by points in the distribution of the graph 1200 of FIG. 2A. Blue is indicative of the DMSO control and red is indicative of doxorubicin. The black outline is a kernel density function fit to the distribution of specific growth rates for each condition (e.g., *p<0.05, **p<0.01). In some embodiments, the average SGR of each condition is fit to a sigmoid dose-response curve using a Hill equation. For example, computed logistic fit parameters using a 4-parameter Hill model via the QPI microscope system 110 for all conditions are summarized in Tables 5-8 below. To determine if there is a response, as illustrated by FIG. 2B, the QPI microscope system 110 tests goodness of fit, adjusts for degrees of freedom using an F-test at significance p<0.01 by comparison to a flat line, as an indicator of no response. For cases with a better fit to the Hill equation, the 4-parameter Hill curve may be used by the QPI microscope system 110 to determine the EC50, a measure of sensitivity to therapy because it represents the effective concentration at which 50% of the cells respond to therapy, as illustrated by FIG. 10. […] A 4-parameter Hill curve is fit to each dose response plot to extract the depth of response and EC50 for each cell/drug pair. A flat line represents no response due to failure of the F-test to reject the null hypothesis that the logistic fit is indistinguishable from a flat line. […] Each color indicates a different drug or therapy used.
# [3] = system: BT-474 cells; test: cells; conditions: for Max Asymptote / Min Asymptote: BT-474, 4-parameter Hill fit of mean SGR vs concentration, one line per replicate
# Text: as §2, §3, §4
# [4] = system: MDA-MB-231 cells; test: Quantitative phase imaging (QPI) growth response, MDA-MB-231; type: cell-based; set-up: DoR QPI: scale not given here; ToR 20 μM: unit not given here; conditions: for Max Asymptote / Min Asymptote: MDA-MB-231, 4-parameter Hill fit of mean SGR vs concentration, one line per replicate
# Text: as §2, §3, §4
# [5] = system: MDA-MB-231 cells; test: CellTiter-Glo (CTG) ATP viability assay, MDA-MB-231; type: cell-based
# Procedure: as §1
smiles,measurement,setting,value
C[C@]12CC[C@@H]3c4ccc(O)cc4C[C@@H](CCCCCCCCC[S+]([O-])CCCC(F)(F)C(F)(F)F)[C@H]3[C@@H]1CC[C@@H]2O (some centres unmarked) [Fulvestrant],Min Asymptote,[1]; 24 h CTG,0.5189 and 0.9446
same,Min Asymptote,[1]; 72 h CTG,0.76 and 0.7073 and 0.6956
same,EC50,"[1]; Homo sapiens, MCF7, MCF-7 cell line, CellTiter-Glo, read-out: EC50, CTG (converted)",0.5 µM
same,DoR CTG,"[1]; MCF-7 cell line, depth of response, CellTiter-Glo",0.3
same,Max Asymptote,[2]; 24 h QPI,0.04169
same,Min Asymptote,[2]; 24 h QPI,0.02021
same,Hill Slope,[2]; 24 h QPI,0.4537
same,Max Asymptote,[2]; 72 h QPI,0.01656 and 0.01573
same,Min Asymptote,[2]; 72 h QPI,0.02377 and 0.02811
same,Hill Slope,[2]; 72 h QPI,0.5562 and 0.7449
same,EC50,"[2]; Homo sapiens, MCF7, 24 h, read-out: log10(EC50), 24 h QPI, MCF-7, Hill fit (converted), EC50 in μM per Table 1",0.000875 µM
same,pEC50,"[2]; Homo sapiens, MCF7, read-out: EC50, QPI, MCF-7 cell line, QPI growth rate",6.70
same,DoR QPI,"[2]; MCF-7 cell line, depth of response, QPI",0.4
same,ToR 20 μM,"[2]; MCF-7 cell line, time of response at 20 μM",23.2
same,cluster mass over time,"[2]; small cluster of MCF-7 cells, 20 μM, 10 h to 72 h",grow slowly at the beginning and end the experiment with a lower mass than they started with
same,Max Asymptote,[3]; 24 h QPI,0.01059
same,Min Asymptote,[3]; 24 h QPI,0.007383
same,Hill Slope,"[3]; 24 h QPI, BT-474, Hill fit",0.5448
same,Max Asymptote,[3]; 72 h QPI,0.006153 and 0.002199 and 0.003561
same,Min Asymptote,[3]; 72 h QPI,0.009854 and 0.008492 and 0.009456
same,DoR QPI,"[3]; BT-474 cell line, depth of response, QPI",0.6
same,ToR 20 μM,"[3]; BT-474 cell line, time of response at 20 μM",28.9
same,EC50,"[3]; Homo sapiens, BT-474, 24 h, read-out: log10(EC50), 24 h QPI, BT-474, Hill fit (converted), EC50 in μM per Table 1",13.7 µM
same,pEC50,"[3]; Homo sapiens, BT-474, read-out: EC50, QPI, BT-474 cell line, QPI growth rate",4.94
same,pEC50,"[3]; Homo sapiens, BT-474, read-out: EC50, SD, BT-474 cell line, EC50 of the standard deviation",5.09
same,Max Asymptote,[4]; 24 h QPI,0.02847
same,Min Asymptote,[4]; 24 h QPI,0.02401
same,Hill Slope,"[4]; 24 h QPI, MDA-MB-231, Hill fit",2.2482
same,Max Asymptote,[4]; 72 h QPI,0.01423 and 0.00907
same,Min Asymptote,[4]; 72 h QPI,0.02796 and 0.03032
same,Hill Slope,"[4]; 72 h QPI, MDA-MB-231, Hill fit",1.492 and 0.9134
same,EC50,"[4]; Homo sapiens, MDA-MB-231, 24 h, 24 h QPI, MDA-MB-231, Hill fit, EC50 in μM per Table 1, read-out: log10(EC50) (converted)",3.43 µM
same,EC50,"[4]; Homo sapiens, MDA-MB-231, MDA-MB-231 cell line, EC50 of the standard deviation, read-out: EC50, SD (converted)",3.32 µM
same,pEC50,"[4]; Homo sapiens, MDA-MB-231, MDA-MB-231 cell line, QPI growth rate, read-out: EC50, QPI",4.94
same,DoR QPI,"[4]; MDA-MB-231 cell line, depth of response, QPI",0.6
same,ToR 20 μM,"[4]; MDA-MB-231 cell line, time of response at 20 μM",14.4
same,Hill Slope,"[5]; 72 h CTG, MDA-MB-231, Hill fit",0.7641
same,Min Asymptote,"[5]; 72 h CTG, MDA-MB-231, Hill fit of luminescence normalized to solvent control, one line per replicate",0.01999
same,EC50,"[5]; Homo sapiens, MDA-MB-231, 72 h, 72 h CTG, MDA-MB-231, Hill fit, read-out: log10(EC50) (converted)",31.4 µM
same,pEC50,"[5]; Homo sapiens, MDA-MB-231, MDA-MB-231 cell line, CellTiter-Glo, read-out: EC50, CTG",4.50
same,DoR CTG,"[5]; MDA-MB-231 cell line, depth of response, CellTiter-Glo",1.0
